Data from ChEMBL document CHEMBL3639238, “Hybrid cholinesterase inhibitors” (2014).

How the values were obtained:
Cholinesterase = Cholinesterase (Homo sapiens, UniProt P06276); assay: (§1) Inhibition Assay: The biological activity of the compounds of general formula (I) towards the cholinesterase inhibition was evaluated using Ellman's method (Ellman, G. L.; Courtney, K. D.; Anders, B.; Featherstone, R. M. Biochem. Pharmacol. 1961, 7, 88-95).This method of evaluation of the cholinesterase inhibitors activity is based on the fact that acetyl/butyrylcholinesterase interacts with the inhibitor, which prevents the acetyl/butyrylcholine hydrolysis. The inhibitor causes the enzyme activity drop which is dependent on the inhibitor concentration. The enzyme unbound with the inhibitor is able to hydrolyze acetyl/butyrylthiocholine (ASCh/BSCh). The amount of the hydrolyzed ASCh/BSCh is measured indirectly, by quantification of the product of its reaction with DTNB (5,5â²-dithio-bis-2-nitrobenzoic acid). Ellman's method relies therefore on the spectrophotometric quantification of product of the reaction between […] and DTNB.
Acetylcholinesterase = Acetylcholinesterase (Homo sapiens, UniProt P22303); assay: as §1
Chain of Acetylcholinesterase (P22303 whole entry): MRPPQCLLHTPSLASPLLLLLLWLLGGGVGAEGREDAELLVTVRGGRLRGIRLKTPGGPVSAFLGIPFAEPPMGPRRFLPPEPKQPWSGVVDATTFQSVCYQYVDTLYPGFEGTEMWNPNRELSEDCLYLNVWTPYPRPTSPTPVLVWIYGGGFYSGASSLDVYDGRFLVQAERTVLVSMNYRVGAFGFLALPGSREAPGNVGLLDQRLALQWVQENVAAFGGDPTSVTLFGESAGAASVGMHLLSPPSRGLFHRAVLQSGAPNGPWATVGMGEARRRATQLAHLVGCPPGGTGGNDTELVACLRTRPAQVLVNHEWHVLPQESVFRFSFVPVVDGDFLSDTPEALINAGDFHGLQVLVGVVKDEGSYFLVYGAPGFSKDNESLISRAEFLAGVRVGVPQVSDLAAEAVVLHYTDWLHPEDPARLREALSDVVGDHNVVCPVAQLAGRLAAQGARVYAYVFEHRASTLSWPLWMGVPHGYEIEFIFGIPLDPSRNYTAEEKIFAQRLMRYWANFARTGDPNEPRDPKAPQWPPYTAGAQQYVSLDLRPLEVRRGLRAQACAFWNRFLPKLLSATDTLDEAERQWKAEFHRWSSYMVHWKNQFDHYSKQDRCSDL

Chain of Cholinesterase (P06276 whole entry): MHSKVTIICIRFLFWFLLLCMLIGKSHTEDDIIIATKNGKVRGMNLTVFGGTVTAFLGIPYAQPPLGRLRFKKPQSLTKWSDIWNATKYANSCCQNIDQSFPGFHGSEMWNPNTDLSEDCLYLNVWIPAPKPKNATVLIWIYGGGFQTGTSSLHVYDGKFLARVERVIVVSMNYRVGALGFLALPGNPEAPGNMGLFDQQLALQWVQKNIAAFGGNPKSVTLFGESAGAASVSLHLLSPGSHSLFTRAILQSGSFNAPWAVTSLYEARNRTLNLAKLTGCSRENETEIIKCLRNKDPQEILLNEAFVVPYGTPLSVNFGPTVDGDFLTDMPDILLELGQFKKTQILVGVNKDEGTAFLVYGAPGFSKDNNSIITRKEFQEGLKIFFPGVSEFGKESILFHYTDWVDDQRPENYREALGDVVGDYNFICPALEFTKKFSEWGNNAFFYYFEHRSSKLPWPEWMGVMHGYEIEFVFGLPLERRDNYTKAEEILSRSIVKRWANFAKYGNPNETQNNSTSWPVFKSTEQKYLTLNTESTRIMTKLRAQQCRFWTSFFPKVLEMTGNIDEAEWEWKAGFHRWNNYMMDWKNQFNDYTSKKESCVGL

SMILES	IC50 (Cholinesterase) [nM]	IC50 (Acetylcholinesterase) [nM]
CC(=O)NCCc1c[nH]c2ccc(OC(=O)NCCCCCCCNc3c4c(nc5cc(Cl)ccc35)CCCC4)cc12	0.38	7.7
CC(=O)NCCc1c[nH]c2ccc(OC(=O)NCCNc3c4c(nc5cc(Cl)ccc35)CCCC4)cc12	34.5	20.1
CC(=O)NCCc1c[nH]c2ccc(OC(=O)NCCCCCCCNc3c4c(nc5ccc(Cl)cc35)CCCC4)cc12	0.88	39.9
CC(=O)NCCc1c[nH]c2ccc(OC(=O)NCCNc3c4c(nc5ccc(Cl)cc35)CCCC4)cc12	8.2	3280
CC(=O)NCCc1c[nH]c2ccc(OC(=O)NCCCCCCCCCCNc3c4c(nc5cc(Cl)ccc35)CCCC4)cc12	1.2	8.1
CC(=O)NCCc1c[nH]c2ccc(OC(=O)NCCCCCCCCCCCCNc3c4c(nc5cc(Cl)ccc35)CCCC4)cc12	1.31	25.6
